PubChem BioAssay (NCI)
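Cells were grown in 96-well plates and exposed to each compound for 48 hours at five concentrations; endpoints were interpolated linearly between bracketing concentrations, or set to the highest concentration if not reached. TGI: total growth inhibition.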

Key:
Assay in all cases: growth of human tumour cells (NCI), 48 h
[1] = test system: A498 renal
[2] = test system: HL-60(TB) leukemia
[3] = test system: HOP-62 NSCLC
[4] = test system: MDA-MB-231 breast
[5] = test system: OVCAR-4 ovarian
[6] = test system: OVCAR-5 ovarian
[7] = test system: SF-268 CNS
[8] = test system: SF-295 CNS
[9] = test system: SR leukemia
[10] = test system: UACC-62 melanoma

| SMILES | TGI [1] | TGI [2] | TGI [3] | TGI [4] | TGI [5] | TGI [6] | TGI [7] | TGI [8] | TGI [9] | TGI [10] |
| --- | --- | --- | --- | --- | --- | --- | --- | --- | --- | --- |
| Clc1ccc(Cc2nc3ccc(CCN4CCN(c5ccccc5)CC4)cc3[nH]2)cc1 | 32.5 µM | > 100 µM | 30.5 µM | 27.3 µM | 37.3 µM | 66.4 µM | > 100 µM | 26.5 µM | 36 µM | 33.6 µM |
| NC(=O)c1nnc2cc(F)ccc2c1N | > 100 µM | > 100 µM | > 100 µM | > 100 µM | > 100 µM | > 100 µM | > 100 µM | > 100 µM | > 100 µM | > 100 µM |
| CC1(C)N=C(C(N)=O)c2ncn(CCO)c2N1 | > 100 µM | > 100 µM | > 100 µM | > 100 µM | > 100 µM | > 100 µM | > 100 µM | > 100 µM | > 100 µM | > 100 µM |
| Cc1c(C(=O)N2CCN(c3ccc([N+](=O)[O-])cc3)CC2)[n+](=O)c2cc(Cl)c(Cl)cc2n1[O-] | 23.1 µM | > 100 µM | 38.2 µM | 46.7 µM | 29.5 µM | 44 µM | 35.2 µM | 34.2 µM | 61.2 µM | 34 µM |
| CCOC(=O)/C(=C\c1ccc(N(C)C)cc1)S(=O)(=O)C(F)(F)C(F)(F)C(F)(F)C(F)(F)F | > 100 µM | > 100 µM | > 100 µM | > 100 µM | > 100 µM | > 100 µM | > 100 µM | > 100 µM | > 100 µM | > 100 µM |
| NC(=Nc1ccc(O)cc1)S(=O)(=O)O | > 100 µM | > 100 µM | > 100 µM | > 100 µM | > 100 µM | > 100 µM | > 100 µM | > 100 µM | > 100 µM | > 100 µM |
| C=CCOCn1cnc2c(N)ncnc21 | > 100 µM | > 100 µM | > 100 µM | > 100 µM | > 100 µM | > 100 µM | > 100 µM | > 100 µM | > 100 µM | > 100 µM |
| COc1ccc2cc1Oc1ccc(cc1)C(Sc1ccccc1)CCOC(=O)CC2 (stereo not given) | > 100 µM | > 100 µM | > 100 µM | > 100 µM | > 100 µM | > 100 µM | > 100 µM | > 100 µM | > 100 µM | > 100 µM |
| COC1=C(N=[N+]=[N-])C(=O)c2ncccc2C1=O | 30.9 µM | 3.98 µM | 29.4 µM | 25 µM | 5.7 µM | 33.8 µM | 28.5 µM | 29 µM | > 100 µM | 20.8 µM |
| COc1cc(OC)c2c(O)c3c(cc2c1)CC(C)(C)CC3=O | > 100 µM | > 100 µM | > 100 µM | > 100 µM | > 100 µM | > 100 µM | > 100 µM | > 100 µM | > 100 µM | > 100 µM |
| Cn1c(=O)c2c(nc3n(Cc4ccccc4)c(=O)c(NCCBr)cn23)n(C)c1=O | 91.1 µM | > 100 µM | 43.2 µM | 72.2 µM | 49.2 µM | > 100 µM | > 100 µM | 43.1 µM | 52.9 µM | > 100 µM |
| O=[N+]([O-])/C(C(Cl)=C(Cl)Cl)=C1\NCCO1 | > 100 µM | > 100 µM | > 100 µM | > 100 µM | > 100 µM | > 100 µM | > 100 µM | > 100 µM | > 100 µM | > 100 µM |
| CN(C)c1ccc(/C=C2\N=C(NN)NC2=O)cc1 | > 100 µM | > 100 µM | > 100 µM | > 100 µM | > 100 µM | > 100 µM | > 100 µM | > 100 µM | > 100 µM | > 100 µM |
| Cc1ccnc2[nH]c(-c3cccc(Cl)c3)cc(=O)c12 | > 100 µM | 0.0611 µM | > 74.8 µM | 0.0861 µM | > 100 µM | > 100 µM | > 100 µM | > 100 µM | > 100 µM | > 100 µM |
| CCCCCC(=O)N[C@@H](c1ccccc1)C(O)C(=O)OC1C[C@@]2(O)C(OC(=O)c3ccccc3)C3[C@](C)(C(=O)[C@H](O)C(=C1C)C2(C)C)C(OC1OCC(O)C(O)C1O)C[C@H]1OC[C@@]31OC(C)=O (stereo not given in full) | > 100 µM | 7.79 µM | > 75.8 µM | > 100 µM | > 100 µM | > 100 µM | > 100 µM | > 93.7 µM | 40.2 µM | > 100 µM |
| Clc1cc2c(c(CSC3=NCN(CC4CC4)CN3)c1)OCOC2 | 58.2 µM | 33.7 µM | 86.7 µM | 48 µM | > 100 µM | 48.9 µM | 98.3 µM | > 100 µM | 42.2 µM | 35.3 µM |
| Cc1ccc(N=Nc2c(O)ccc3cc(S(=O)(=O)O)ccc23)c(C)c1 | > 100 µM | > 100 µM | > 100 µM | > 100 µM | > 100 µM | > 100 µM | > 100 µM | > 100 µM | > 100 µM | > 100 µM |
| C=CCOc1ccccc1N=N/C(C#N)=N\Nc1ccccc1OCC=C | > 100 µM | > 100 µM | > 100 µM | > 100 µM | > 100 µM | > 100 µM | > 100 µM | > 100 µM | > 100 µM | > 100 µM |
